Reference: patent US20240174680A1, “CDK2 INHIBITORS AND METHODS OF USING THE SAME” (Cedilla Therapeutics, Inc., priority 2021, published 2024)

How the values were obtained:
CDK2/Cyclin E1 [1] = target: T1, CDK2/Cyclin E1 (Homo sapiens, UniProt P24941); experiment: CDK2/Cyclin E1 Caliper LabChip EZ Reader mobility shift assay; format: biochemical; set-up: purchased Eurofins 14-475; conditions: read-out: Caliper Assay (CDK2/CCNE1): IC50
Summary of the method: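 Substrate-to-product conversion of fluorescent peptide (1.5 μM final) read by capillary electrophoresis after 100 min reaction, EDTA-quenched. Enzyme (2.5 nM final) and ATP (100 μM final) were preincubated 30 min with inhibitor dilutions first. % activity vs concentration fitted four-parameter for IC50.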

CDK2/Cyclin E1 [2] = target: T1, CDK2/Cyclin E1; experiment: HotSpot kinase inhibition assay (radiometric, Histone H1 substrate); format: biochemical; conditions: 10 μM ATP, read-out: Kinase Assay (CDK2/CCNE): IC50
Experimental: Inhibition of CDK2/CCNE1 activities in the presence of compounds of the present disclosure was evaluated using the HotSpot™ assay (proprietary to Reaction Biology Corporation). In the assay, CDK2/Cyclin E1 (Signalchem C29-18G) catalyzed the transfer of radioactive phosphate to amino acid residues of Histone H1 (Sigma, H5505), which are detected radiometrically.
Reactions contained 20 mM HEPES pH 7.5, 10 mM MgCl2, 1 mM EGTA, 2 mM DTT, 0.02% Brij35, 0.02 mg/mL BSA, 0.1 mM Na3VO4, 1% DMSO, 1.5 nM CDK2/Cyclin E1, 10 μM ATP, and 20 μM Histone H1.
CDK2/Cyclin E1 and Histone H1 were mixed in reaction buffer. To this mixture dose titrations of inhibitors in 100% DMSO were added in by acoustic transfer. The compound mixtures were incubated for 20 minutes, then the kinase reactions were initiated by the addition of a mixture of ATP and ^33P ATP for final concentrations of 10 μM total ATP, 20 μM Histone H1, and 1.5 nM CDK2/Cyclin E1. The reactions were carried out for 120 minutes, then spotted on a P81 ion exchange filter paper, and extensively washed with 0.75% phosphoric acid. The resulting radioactive counts were normalized to yield % activity, plotted against compound concentration, and fit to a four-parameter equation to determine the IC50 for each compound.

| IC50 (CDK2/Cyclin E1 [1]) [nM] | IC50 (CDK2/Cyclin E1 [2]) [nM] | SMILES |
| --- | --- | --- |
| ≤ 10 | ≤ 1000 | COC[C@H]1CCCN(C(=O)[C@@H](NC(=O)[C@@H]2CN(C(=O)c3cncs3)CC23CN(C(=O)[C@H]2CC2(C)C)C3)[C@@H](C)O[C@H](C)C2CCCCC2)C1 [I-466] |
| 100 to 1000 | ≤ 1000 | CNC(=O)[C@@H](NC(=O)C1CN(C(=O)c2cnn(Cc3ccncc3)c2)CC12CN(C(=O)C1CC1(C)C)C2)[C@@H](C)OCc1ccccc1 (some centres unmarked) [I-13] |
|  | ≤ 1000 | C[C@H](CNC(=O)C1CN(C(=O)c2cnn(Cc3ccccc3)c2)CC12CN(C(=O)C1CC1(C)C)C2)OCc1ccccc1 (some centres unmarked) [I-7] |
| ≤ 10 | ≤ 1000 | COC[C@H]1CCCN(C(=O)[C@@H](NC(=O)[C@@H]2CN(C(=O)c3cncs3)CC23CN(C(=O)[C@H]2CC2(C)C)C3)[C@@H](C)O[C@H](C)C2CCCCC2)C1 [I-367] |
| ≤ 10 | ≤ 1000 | C[C@@H](OCC1CCCCC1)[C@H](NC(=O)[C@@H]1CN(C(=O)c2cnn(Cc3ccccc3)c2)CC12CN(C(=O)[C@H]1CC1(C)C)C2)C(C)(C)O [I-281] |
| 1000 to 10000 | 1000 to 10000 | CNC(=O)[C@@H](NC(=O)[C@@H]1CN(C(=O)c2cnn(Cc3ccccc3)c2)CC12CN(C(=O)CC1CC1)C2)[C@@H](C)OCc1ccccc1 [I-8A] |
| 100 to 1000 | 1000 to 10000 | CC1(C)C[C@@H]1C(=O)N1CC2(CN(C(=O)c3cnn(Cc4ccccc4)c3)C[C@H]2C(=O)N2CC[C@H](OCC3CCCCC3)C2)C1 [I-256] |
|  | ≤ 1000 | CNC(=O)[C@@H](NC(=O)C1CN(C(=O)c2cnn(Cc3ccccc3)c2)CC12CN(C(=O)C1CC1(C)C)C2)[C@@H](C)OCC1CCCCC1 (mixture of isomers) [I-12] |
| 100 to 1000 | 1000 to 10000 | CC1(C)C[C@@H]1C(=O)N1CC2(CN(C(=O)c3cnn(Cc4ccccc4)c3)C[C@H]2C(=O)N2CCN(CC3CCCCC3)C(=O)C2)C1 [I-253] |
|  | 10000 to 100000 | CNC(=O)[C@@H](NC(=O)C1CN(C(=O)c2cnn(Cc3ccccc3)c2)CC12CN(C(=O)C1CC1(C)C)C2)[C@@H](C)O (some centres unmarked) [I-88 mixture] |
| 100 to 1000 | ≤ 1000 | Cc1ccc(CNC(=O)[C@@H]2CN(C(=O)c3cnn(Cc4ccccc4)c3)CC23CN(C(=O)[C@H]2CC2(C)C)C3)nn1 [I-252] |
| ≤ 10 | ≤ 1000 | COC[C@H]1CCCN(C(=O)[C@@H](NC(=O)[C@@H]2CN(C(=O)c3cncs3)CC23CN(C(=O)[C@H]2CC2(C)C)C3)[C@@H](C)OCC2CCCCC2)C1 [I-196A, (S)—N-((2S,3R)-3-(cyclohexylmethoxy)-1-((S)-3-(methoxymethyl)piperidin-1-yl)-1-oxobutan-2-yl)-2-((S)-2,2-dimethylcyclopropanecarbonyl)-6-(thiazole-5-carbonyl)-2,6-diazaspiro[3.4]octane-8-carboxamide] |
| 1000 to 10000 | 10000 to 100000 | CNC(=O)[C@@H](NC(=O)[C@H]1CN(C(=O)c2cnn(Cc3ccccc3)c2)CC12CN(C(=O)CC1CC1)C2)[C@@H](C)OCc1ccccc1 [I-8B] |
| 100 to 1000 | ≤ 1000 | CNC(=O)[C@@H](NC(=O)C1CN(C(=O)c2cnn(CC3CCCCC3)c2)CC12CN(C(=O)C1CC1(C)C)C2)[C@@H](C)OCc1ccccc1 (some centres unmarked) [I-10] |
|  | 10000 to 100000 | CNC(=O)[C@@H](NC(=O)C1CN(C(=O)c2cnn(Cc3ccccc3)c2)CC12CN(C(=O)C1CC1(C)C)C2)[C@@H](C)OC (stereo partly drawn) [I-2, 6-(1-benzyl-1H-pyrazole-4-carbonyl)-2-(2,2-dimethylcyclopropane-1-carbonyl)-N-((2S,3R)-3-methoxy-1-(methylamino)-1-oxobutan-2-yl)-2,6-diazaspiro[3.4]octane-8-carboxamide] |
|  | > 100000 | CNC(=O)[C@@H](NC(=O)C1CN(C(=O)c2cnn(Cc3ccccc3)c2)CC12CN(C(=O)C1CC1(C)C)C2)[C@@H](C)OCc1cccc(C#N)c1 (some centres unmarked) [I-6] |
| 100 to 1000 | ≤ 1000 | CC1(C)C[C@@H]1C(=O)N1CC2(CN(C(=O)c3cnn(Cc4ccccc4)c3)C[C@H]2C(=O)NCc2ccc(C3CCCCC3)nn2)C1 [I-377] |
|  | 1000 to 10000 | CNC(=O)[C@H](COCc1ccccc1)NC(=O)C1CN(C(=O)c2cnn(Cc3ccccc3)c2)CC12CN(C(=O)C1CC1(C)C)C2 (some centres unmarked) [I-1] |

| IC50 (CDK2/Cyclin E1 [1]) [nM] | IC50 (CDK2/Cyclin E1 [2]) [nM] | SMILES |
| --- | --- | --- |
| 1000 to 10000 | 1000 to 10000 | CC1(C)C[C@@H]1C(=O)N1CC2(CN(C(=O)c3cnn(Cc4ccccc4)c3)C[C@H]2C(=O)NCc2ccc(Cl)nn2)C1 [I-376] |
|  | 1000 to 10000 | CNC(=O)[C@@H](NC(=O)[C@H]1CN(C(=O)c2cn[nH]c2)CC12CN(C(=O)C1CC1(C)C)C2)[C@@H](C)OCc1ccccc1 (some centres unmarked) [I-5B] |
| > 10000 | 10000 to 100000 | Cc1ccc(CNC(=O)[C@@H]2CN(C(=O)c3cncs3)CC23CN(C(=O)[C@H]2CC2(C)C)C3)nn1 [I-378] |
| > 10000 | 1000 to 10000 | CNC(=O)[C@@H](NC(=O)[C@H]1CN(C(=O)c2cnn(Cc3ccccc3)c2)CC12CN(C(=O)OC(C)(C)C)C2)[C@@H](C)OCc1ccccc1 [I-3B] |
| 100 to 1000 | ≤ 1000 | CNC(=O)[C@@H](NC(=O)[C@@H]1CN(C(=O)c2cnn(Cc3ccccc3)c2)CC12CN(C(=O)OC(C)(C)C)C2)[C@@H](C)OCc1ccccc1 [I-3A, tert-butyl (S)-6-(1-benzyl-1H-pyrazole-4-carbonyl)-8-(((2S,3R)-3-(benzyloxy)-1-(methylamino)-1-oxobutan-2-yl)carbamoyl)-2,6-diazaspiro[3.4]octane-2-carboxylate] |
| 1000 to 10000 | 1000 to 10000 | CNC(=O)[C@@H](NC(=O)C1CN(C(=O)c2cnn(C)c2)CC12CN(C(=O)C1CC1(C)C)C2)[C@@H](C)OCc1ccccc1 (stereo partly drawn) [I-14, N-((2S,3R)-3-(benzyloxy)-1-(methylamino)-1-oxobutan-2-yl)-2-(2,2-dimethylcyclopropane-1-carbonyl)-6-(1-methyl-1H-pyrazole-4-carbonyl)-2,6-diazaspiro[3.4]octane-8-carboxamide] |
|  | 10000 to 100000 | CNC(=O)[C@@H](NC(=O)[C@@H]1CN(C(=O)c2cnn(Cc3ccccc3)c2)CC12CN(C(=O)C1CC(C)(C)C1)C2)[C@@H](C)OCc1ccccc1 [I-4A] |
|  | > 100000 | CNC(=O)[C@@H](NC(=O)[C@H]1CN(C(=O)c2cnn(Cc3ccccc3)c2)CC12CN(C(=O)C1CC(C)(C)C1)C2)[C@@H](C)OCc1ccccc1 [I-4B] |
|  | ≤ 1000 | CNC(=O)[C@@H](NC(=O)[C@@H]1CN(C(=O)c2cn[nH]c2)CC12CN(C(=O)C1CC1(C)C)C2)[C@@H](C)OCc1ccccc1 (some centres unmarked) [I-5A] |
| 100 to 1000 | ≤ 1000 | CNC(=O)[C@@H](NC(=O)C1CN(C(=O)c2cnn(Cc3ccccn3)c2)CC12CN(C(=O)C1CC1(C)C)C2)[C@@H](C)OCc1ccccc1 (some centres unmarked) [I-11] |
| > 10000 |  | CC1(C)C[C@@H]1C(=O)N1CC2(CN(C(=O)c3cnn(Cc4ccccc4)c3)C[C@@H]2C(=O)NC2CCCN(C(=O)c3ccccc3)C2)C1 (some centres unmarked) [I-59B] |
| 100 to 1000 |  | C[C@@H](OCC1CCCCC1)[C@H](NC(=O)[C@@H]1CN(C(=O)c2cnn(C(F)(F)F)c2)CC12CN(C(=O)[C@H]1CC1(C)C)C2)C(=O)N1CCCCC1 [I-115] |
| > 10000 |  | CNC(=O)[C@@H](NC(=O)[C@@H]1CN(C(=O)c2cnc[nH]2)CC12CN(C(=O)[C@H]1CC1(C)C)C2)[C@@H](C)OCc1ccccc1 [I-44A] |
| ≤ 10 |  | C[C@@H](OCC1CCCCC1)[C@@H](COC1CCCNC1)NC(=O)[C@@H]1CN(C(=O)c2cncs2)CC12CN(C(=O)[C@H]1CC1(C)C)C2 (some centres unmarked) [I-332] |
| 10 to 100 |  | C[C@@H](OCc1ccccc1)[C@H](NC(=O)C1CN(C(=O)c2cnn(Cc3ccccc3)c2)CC12CN(C(=O)[C@H]1CC1(C)C)C2)C(=O)N1CCOCC1 (some centres unmarked) [I-86] |
| 10 to 100 |  | COC[C@H]1CCCN(C(=O)[C@@H](NC(=O)[C@@H]2CN(C(=O)c3cncs3)CC23CN(C(=O)[C@H]2CC2(C)C)C3)[C@@H](C)OCc2ccccc2F)C1 [I-321] |
| > 10000 |  | CNC(=O)[C@@H](NC(=O)[C@H]1CN(C(=O)c2cnn(Cc3ccccc3)c2)CC12CN(C(=O)C1(C)CC1)C2)[C@@H](C)OCc1ccccc1 [I-67B] |
